Assay results taken from patent US8648063B2, “Potentiation of cancer chemotherapy by 7-(2, 5-dihydro-4-imidazo [1, 2-a] pyridine-3-yl-2,5-dioxo-1H-pyrrol-3-yl)-9-fluoro-1,2,3,4 tetrahydro -2-(1-piperidinyl-carbonyl)-pyrrolo [3,2,1-jk] [1,4] benzodiazepine” (Eli Lilly and Company, priority 2007, dated 2014).

What was measured:
[1] = test system: Colo-205 human colorectal carcinoma xenografts; experiment: Tumor growth delay, Colo-205 xenografts; assay type: in vivo, CD-1 nu/nu mice; details: cisplatin 5 mg/kg IP, Compound I 5 mg/kg IV, alone or combined, 3 cycles separated by 7 days, time to 1000 mm^3 vs control
Description: (§1) Cultured cells are implanted subcutaneously in the rear flank of female CD-1 nu/nu strain mice which have been acclimated for one week in the animal facility after receipt from the vendor. Mice are randomized into groups of 7 or 8 mice per group and treatment begun when the mean tumor volume reaches ˜100 mm^3 Compound I is dosed IV and the chemotherapeutic agent is given IP. When the agents are given in combination, the chemotherapeutic agent is dosed 60 minutes prior to Compound I. The tumors are measured 2 times per week by electronic calipers to plot growth curves. Tumor growth delay is the increase in median time it takes for a tumor to reach 1000 mm^3 in volume when compared to a control group. Animals are also monitored for fluctuations in body weight and survival.

[2] = test system: A2780 human ovarian carcinoma xenografts; experiment: Tumor growth delay, A2780 xenografts; assay type: in vivo, CD-1 nu/nu mice; details: cisplatin 5 mg/kg IP, Compound I 5 mg/kg IV, alone or combined, 3 cycles separated by 7 days, time to 1000 mm^3 vs control
Description: as §1

A2780 = experiment: Caspase-3/7 apoptosis assay (Apo-ONE) in A2780; assay type: cell-based, human; details: 48 hrs
Excerpt: (§2) Apoptosis or programmed cell death is characterized by a set of biochemical reactions, one of which is the induction of caspases. Activated caspases are proteases that participate in a cascade of cleavage events that disable key enzymes responsible for cell homeostasis and repair. Caspases 3 and 7 play key effector roles in apoptosis and can be detected and measured by a fluorescent biochemical assay. The increase of Caspase-3/7 activity in cells is directly correlated to apoptotic activity. (D. W. Nicholson, et al., Nature, 376, 37-43 (1995)) The Promega Apo-ONE Homogeneous Caspase-3/7 Assay Kit was used (Catalog #G7791). The assay buffer consists of 30 mM HEPES (N-(2-hydroxyethyl)piperazine-M-(2-ethanesulfonic acid) pH 7.4, 150 mM NaCl, 50 mM KCl, 10 mM MgCl2, 0.4 mM EGTA (ethylene glycol tetraacetic acid), 0.5% Nonidet P40 (octylphenolpoly(ethyleneglycol ether)), 0.1% CHAPS (3-[(3-Cholamidopropyl)dimeth-ylammonio]-1-propanesulfonate hydrate and 10% sucrose, which lyses/permeabilizes cultured cells and a caspase 3/7 substrate, Z-DEVD (Z-Asp(OMe)-Glu(OMe)-Val-Asp(OMe)), coupled to a profluorescent rhodamine 110. When the buffer-substrate mixture is added to a test sample, the cleavage and subsequent removal of the DEVD peptides by caspase 3/7 activity results in intense fluorescence of the rhodamine 110 leaving group, which is detected by excitation at 499 nm. The amount of fluorescent product is proportional to the amount of caspase 3/7 cleavage activity in the sample.
(§3) To measure the apoptotic effect of test compounds, tumor cells are plated at 1×10^4 cells per well in 96 well plates and incubated overnight at 37° C., with 5% CO2. Tumor cells are treated with test compound at desired concentrations in triplicate, including untreated/negative control wells. […] At the end of the incubation period, a mixture of the assay buffer and substrate is added to each sample well. The fluorescence in each well is measured at an excitation wavelength of 485+/−20 nm and an emission wavelength of 530+/−25 nm. The % increase of caspase activity in treated cells is calculated relative to untreated controls.
(§4) The data in Tables 1-12 are expressed as % increase of caspase activity relative to untreated controls unless otherwise noted.

AGS = experiment: Caspase-3/7 apoptosis assay (Apo-ONE) in AGS; assay type: cell-based; details: Cmpd I 900 nM
Excerpt: as §2, §3, §4

NCI-H460 = experiment: Caspase-3/7 apoptosis assay (Apo-ONE) in NCI-H460; assay type: cell-based, human; details: NCI-H460; Compound I 300 nM; cisplatin 1 μM; 48 hrs
Excerpt: as §2
(§5) To measure the apoptotic effect of test compounds, tumor cells are plated at 1×10^4 cells per well in 96 well plates and incubated overnight at 37° C., with 5% CO2. Tumor cells are treated with test compound at desired concentrations in triplicate, including untreated/negative control wells. The assay plates are re-incubated for 48 hrs. At the end of the incubation period, a mixture of the assay buffer and substrate is added to each sample well. The fluorescence in each well is measured at an excitation wavelength of 485+/−20 nm and an emission wavelength of 530+/−25 nm. The % increase of caspase activity in treated cells is calculated relative to untreated controls.
as §4

[3] = test system: HCT-116 human colorectal carcinoma xenografts; experiment: Tumor growth delay, HCT-116 xenografts; assay type: in vivo, CD-1 nu/nu mice; details: cisplatin 10 mg/kg IP, Compound I 5 mg/kg IV, alone or combined, 3 cycles separated by 7 days, time to 1000 mm^3 vs control
Description: as §1

Colo-205 = experiment: Caspase-3/7 apoptosis assay (Apo-ONE) in Colo-205; assay type: cell-based, human; details: 48 hrs
Excerpt: as §2, §5, §4

MKN 45 = experiment: Caspase-3/7 apoptosis assay (Apo-ONE) in MKN 45; assay type: cell-based
Excerpt: as §2, §3, §4

HCT-116 = experiment: Caspase-3/7 apoptosis assay (Apo-ONE) in HCT-116; assay type: cell-based, human; details: 48 hrs
Excerpt: as §2, §5, §4

A549 = experiment: Caspase-3/7 apoptosis assay (Apo-ONE) in A549; assay type: cell-based; details: Compound I 300 nM, cisplatin 1 μM, 48 hrs
Excerpt: as §2, §5, §4

KATO III = experiment: Caspase-3/7 apoptosis assay (Apo-ONE) in KATO III; assay type: cell-based; details: Cmpd I 600 nM, Cisplatin 10 μM, 48 hrs
Excerpt: as §2, with “The amount of fluorescent product is proportional to the amount of caspase 3/7 cleavage activity in the sample.” left out

Calu-6 = experiment: Caspase-3/7 apoptosis assay (Apo-ONE) in Calu-6; assay type: cell-based; details: Calu 6; Cmpd I 33 nM; Cisplatin 2 μM; 48 hrs
Excerpt: as §2, §5, §4

SKOV3 = experiment: Caspase-3/7 apoptosis assay (Apo-ONE) in SKOV3; assay type: cell-based; details: Cmpd I 300 nM, Doxorubicin 1 μM, 48 hrs
Excerpt: as §2, with “The amount of fluorescent product is proportional to the amount of caspase 3/7 cleavage activity in the sample.” left out

[4] = Compound I 330 nM, CPT-11 20 nM

With `N.N.[Cl][Pt][Cl]` [cisplatin, reference compound] the “Tumor Growth Delay Mean ± Standard Error” value [1] was 18 ± 3.5 days, the “Tumor Growth Delay Mean ± Standard Error” value [2] was 5 ± 1.6 days and the “% increase of caspase activity relative to untreated controls” value (A2780; Compound I 60 nM, cisplatin 5 μM) was 1.5%. For the same molecule, the “% increase of caspase activity relative to untreated controls” value (AGS; Cisplatin 5 μM, plates incubated for 72 hours) was 147%, the “% increase of caspase activity relative to untreated controls” value (NCI-H460) was 47% and the “Tumor Growth Delay Mean ± Standard Error” value [3] was 23 ± 10.3 days. The “% increase of caspase activity relative to untreated controls” value (Colo-205; Compound I 110 nM, cisplatin 5 μM) was 8%, the “% increase of caspase activity relative to untreated controls” value (MKN 45; Cmpd I 600 nM, Cisplatin 10 μM, 48 hrs) was 359% and the “% increase of caspase activity relative to untreated controls” value (HCT-116; Compound I 300 nM, cisplatin 5 μM) was 36%. The “% increase of caspase activity relative to untreated controls” value (A549) was 4%, the “% increase of caspase activity relative to untreated controls” value (KATO III) was 389% and the “% increase of caspase activity relative to untreated controls” value (Calu-6) was 97%.
`COc1cccc2c1C(=O)c1c(O)c3c(c(O)c1C2=O)C[C@@](O)(C(=O)CO)C[C@@H]3O[C@H]1C[C@H](N)[C@H](O)[C@H](C)O1` [Doxorubicin, doxorubicin, reference compound] was tested, and the “% increase of caspase activity relative to untreated controls” value (SKOV3) was 184%.
In the case of `CCc1c2c(nc3ccc(OC(=O)N4CCC(N5CCCCC5)CC4)cc13)-c1cc3c(c(=O)n1C2)COC(=O)[C@]3(O)CC` [CPT-11, irinotecan, reference compound], the “% increase of caspase activity relative to untreated controls” value (A2780; [4]) is reported as 153%, the “% increase of caspase activity relative to untreated controls” value (Colo-205; Compound I 33 nM, CPT-11 20 nM) is reported as 38% and the “% increase of caspase activity relative to untreated controls” value (HCT-116; [4]) is reported as 50%.
For `O=c1[nH]cc(F)c(=O)[nH]1` [Compound 5-FU, 5-fluorouracil, reference compound], the “% increase of caspase activity relative to untreated controls” value (AGS; 5-FU 3 μM, 48 hrs) was 133%, the “% increase of caspase activity relative to untreated controls” value (MKN 45; Cmpd I 300 nM, 5-FU 5 μM, plates incubated for 72 hours) was 415% and the “% increase of caspase activity relative to untreated controls” value (HCT-116; Cmpd I 12 nM, 5-FU 5 μM) was 55%.
